TGI data for 12 compounds are collected here from PubChem BioAssay (NCI).

Some test systems named below: OVCAR-3 ovarian; SW-620 colon; HT29 colon; HL-60(TB) leukemia; RPMI-8226 leukemia; NCI/ADR-RES ovarian; HCT-15 colon; MDA-MB-435; SK-OV-3 ovarian; HOP-92 NSCLC; SK-MEL-2 melanoma; T-47D breast; SK-MEL-28 melanoma; OVCAR-8 ovarian; TK-10 renal; HCC-2998 colon; RXF 393 renal; LOX IMVI melanoma; SF-295 CNS; MDA-MB-231 breast.
Holding throughout (experiment): inhibition of tumour cell growth, NCI panel, 48 h

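Test compounds were applied to cells in 96-well plates for 48 hours at 5 doses. TGI denotes the concentration required for complete inhibition of growth.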

In the case of `O=C(NNC1=NCCCCN1)Nc1ccc(Cl)cc1`, the TGI with OVCAR-3 ovarian, with SW-620 colon, in the assay with HT29 colon, in the assay on HL-60(TB) leukemia, in the assay with RPMI-8226 leukemia and in the assay with NCI/ADR-RES ovarian was greater than 100 µM throughout. The TGI in the assay with HCT-15 colon, in the assay on MDA-MB-435, with SK-OV-3 ovarian, with HOP-92 NSCLC, in the assay with SK-MEL-2 melanoma and in the assay on T-47D breast was greater than 100 µM each time. Further, the TGI with SK-MEL-28 melanoma, with OVCAR-8 ovarian, in the assay on TK-10 renal, in the assay with HCC-2998 colon, in the assay with RXF 393 renal and with LOX IMVI melanoma was greater than 100 µM throughout. The same compound displayed a TGI in the assay on SF-295 CNS greater than 100 µM.

For the compound `C[Si](C)(N[Si](C)(C)OCCc1ccccc1)OCCc1ccccc1`, the TGI in the assay with OVCAR-3 ovarian, in the assay on SW-620 colon, in the assay on HT29 colon, with HL-60(TB) leukemia, in the assay on RPMI-8226 leukemia and with NCI/ADR-RES ovarian was greater than 100 µM throughout. Besides, the TGI in the assay with HCT-15 colon, in the assay with MDA-MB-435, in the assay with SK-OV-3 ovarian, with HOP-92 NSCLC, in the assay with SK-MEL-2 melanoma and in the assay on T-47D breast was greater than 100 µM throughout. The TGI with SK-MEL-28 melanoma, in the assay on OVCAR-8 ovarian, in the assay with TK-10 renal, in the assay with HCC-2998 colon, in the assay with RXF 393 renal and in the assay with LOX IMVI melanoma was greater than 100 µM throughout. This compound came in with a TGI in the assay with SF-295 CNS greater than 100 µM.

With `CC1=NC2c3c(-c4ccc(Cl)cc4)cn(-c4ccc(C)cc4)c3N=CN2N1` (centres undefined), the TGI in the assay with OVCAR-3 ovarian, with SW-620 colon, in the assay with HT29 colon, with HL-60(TB) leukemia, in the assay with NCI/ADR-RES ovarian and in the assay on HCT-15 colon was greater than 100 µM each time. The TGI was greater than 100 µM with MDA-MB-435; greater than 100 µM in the assay with SK-OV-3 ovarian; 63.3 µM with HOP-92 NSCLC; greater than 100 µM in the assay on MDA-MB-231 breast; greater than 100 µM in the assay on SK-MEL-2 melanoma; greater than 100 µM with SK-MEL-28 melanoma. Moreover, the TGI with OVCAR-8 ovarian, in the assay on TK-10 renal, in the assay with HCC-2998 colon, with RXF 393 renal, in the assay on LOX IMVI melanoma and in the assay on SF-295 CNS was greater than 100 µM in each case.

With `O=C(CCCN1CCC2(CC1)CC(=O)N(N1CCOCC1)C2=O)c1ccc(F)cc1`, the TGI in the assay on OVCAR-3 ovarian, in the assay with SW-620 colon, in the assay with HT29 colon, in the assay with HL-60(TB) leukemia, in the assay on RPMI-8226 leukemia and in the assay with NCI/ADR-RES ovarian was greater than 100 µM throughout. Besides, the TGI in the assay on HCT-15 colon, in the assay with MDA-MB-435, in the assay on SK-OV-3 ovarian, in the assay with MDA-MB-231 breast, in the assay with SK-MEL-2 melanoma and in the assay on T-47D breast was greater than 100 µM in each case. The TGI with SK-MEL-28 melanoma, in the assay with OVCAR-8 ovarian, in the assay with TK-10 renal, in the assay with RXF 393 renal, in the assay with LOX IMVI melanoma and in the assay on SF-295 CNS was greater than 100 µM in each case.

As for `CCN(CC)C1CCC(C2c3cc4c(cc3OC(N3CCOCC3)C2C)OCO4)CC1` (centres undefined), the TGI was 99.1 µM in the assay on OVCAR-3 ovarian; greater than 100 µM with SW-620 colon; 25.7 µM with HT29 colon; 89.8 µM with HL-60(TB) leukemia; greater than 55.5 µM in the assay with RPMI-8226 leukemia; greater than 83.1 µM with NCI/ADR-RES ovarian. Further, the TGI in the assay on HCT-15 colon is greater than 100 µM; in the assay with MDA-MB-435 it was greater than 100 µM; in the assay on HOP-92 NSCLC, greater than 100 µM; in the assay on SK-MEL-2 melanoma, 42.2 µM; in the assay on T-47D breast it was greater than 96.7 µM; in the assay on SK-MEL-28 melanoma, greater than 100 µM. Also, the TGI in the assay with OVCAR-8 ovarian was greater than 100 µM; in the assay with TK-10 renal it was greater than 100 µM; with HCC-2998 colon, 40.3 µM; in the assay on RXF 393 renal, 52.7 µM; with LOX IMVI melanoma it was greater than 100 µM; in the assay with SF-295 CNS, greater than 100 µM.

`CCOC(=O)c1cc2c3c(c(C(C)=O)c(O)c2[nH]1)N(C(C)=O)CC3`: the TGI in the assay with OVCAR-3 ovarian, with SW-620 colon, with HT29 colon, with HL-60(TB) leukemia, with RPMI-8226 leukemia and in the assay with NCI/ADR-RES ovarian was greater than 100 µM in each case. Also, the TGI in the assay with HCT-15 colon, with MDA-MB-435, in the assay on SK-OV-3 ovarian, in the assay on MDA-MB-231 breast, in the assay on SK-MEL-2 melanoma and in the assay on T-47D breast was greater than 100 µM each time. The TGI in the assay with SK-MEL-28 melanoma, in the assay with OVCAR-8 ovarian, in the assay on TK-10 renal, in the assay with RXF 393 renal, in the assay with LOX IMVI melanoma and with SF-295 CNS was greater than 100 µM throughout.

For the compound `CC(=O)Oc1ccc2cc(Oc3ccc(Cl)c(Cl)c3)c(=O)oc2c1`, the TGI in the assay with OVCAR-3 ovarian was 50 µM; in the assay on SW-620 colon it was greater than 100 µM; in the assay on HT29 colon, greater than 100 µM; in the assay on HL-60(TB) leukemia it was greater than 100 µM; in the assay on RPMI-8226 leukemia, greater than 100 µM; in the assay with HCT-15 colon, 53.8 µM. Besides, the TGI was 78.8 µM with HOP-92 NSCLC; greater than 100 µM in the assay on MDA-MB-231 breast; 99.3 µM in the assay on T-47D breast; 79.3 µM in the assay with SK-MEL-28 melanoma; 69.5 µM in the assay on OVCAR-8 ovarian; 79.2 µM in the assay with TK-10 renal. The TGI in the assay with HCC-2998 colon was 39.6 µM; in the assay on RXF 393 renal, 65.9 µM; in the assay on LOX IMVI melanoma it was 59.1 µM; in the assay on SF-295 CNS, greater than 100 µM.

Regarding `CN(C)CCNC(=O)c1cccc2c(NC(CS)C(=O)O)c3ccccc3[n+](C)c12` (centres undefined), the TGI was greater than 100 µM in the assay with OVCAR-3 ovarian; greater than 100 µM with SW-620 colon; greater than 100 µM with HT29 colon; greater than 100 µM in the assay with RPMI-8226 leukemia; 93.2 µM in the assay with NCI/ADR-RES ovarian; greater than 100 µM with HCT-15 colon. The TGI in the assay with MDA-MB-435, in the assay with SK-OV-3 ovarian, in the assay with MDA-MB-231 breast, with SK-MEL-2 melanoma, in the assay with T-47D breast and in the assay on SK-MEL-28 melanoma was greater than 100 µM each time. In addition, the TGI with OVCAR-8 ovarian, in the assay on TK-10 renal, in the assay with HCC-2998 colon, in the assay on LOX IMVI melanoma and in the assay with SF-295 CNS was greater than 100 µM throughout.

For the compound `COc1ccc2nc3c([N+](=O)[O-])ccc(NCCCN(C)C)c3c(NCCCN(C)C)c2c1`, the TGI in the assay on SW-620 colon was 6.22 µM; in the assay on HT29 colon, 2.56 µM; in the assay on HL-60(TB) leukemia it was 8.81 µM; in the assay on RPMI-8226 leukemia it was 2.53 µM; with HCT-15 colon, 2.86 µM; in the assay with MDA-MB-435 it was greater than 10 µM. Further, the TGI with SK-OV-3 ovarian is 4.14 µM; in the assay on HOP-92 NSCLC, greater than 10 µM; in the assay on MDA-MB-231 breast, 2.87 µM; in the assay on T-47D breast, greater than 10 µM; in the assay on SK-MEL-28 melanoma it was 3.42 µM; with OVCAR-8 ovarian it was 2.9 µM. Also, the TGI with TK-10 renal is 5.52 µM; in the assay on HCC-2998 colon, 2.61 µM; in the assay on RXF 393 renal, 2.02 µM; in the assay with LOX IMVI melanoma it was 3 µM; with SF-295 CNS, 3.01 µM.

On to `CCN(CC)CCN(C(=Nc1ccccc1)N1CCCCC1)c1ccccc1`, for which the TGI with OVCAR-3 ovarian was 28.3 µM; with SW-620 colon, greater than 100 µM; in the assay on HT29 colon, 30.9 µM; in the assay on HL-60(TB) leukemia, 6.95 µM; in the assay with RPMI-8226 leukemia, 8.71 µM; in the assay on HCT-15 colon, greater than 100 µM. Moreover, the TGI in the assay with MDA-MB-435 was 20.6 µM; with SK-OV-3 ovarian it was 24.2 µM; in the assay with MDA-MB-231 breast, 38.8 µM; with SK-MEL-2 melanoma, 37.7 µM; in the assay on T-47D breast, 9.92 µM; in the assay on SK-MEL-28 melanoma it was 46 µM. In addition, the TGI stood at 29.5 µM with OVCAR-8 ovarian; 97.8 µM with TK-10 renal; 19.9 µM in the assay with HCC-2998 colon; 41.1 µM with RXF 393 renal; 23.7 µM in the assay with LOX IMVI melanoma; 17.9 µM in the assay on SF-295 CNS.

`O=C1C=CC(=O)c2c1ccc1c3ccccc3n(-c3ccccc3)c21`: the TGI in the assay with OVCAR-3 ovarian stood at 21.9 µM; in the assay on SW-620 colon it was 7.31 µM; in the assay on HT29 colon, 37 µM; in the assay with HL-60(TB) leukemia it was 2.34 µM; in the assay with RPMI-8226 leukemia it was 4.59 µM; with HCT-15 colon, 10.7 µM. Moreover, the TGI came to 30.3 µM in the assay on MDA-MB-435; 39.3 µM in the assay with SK-OV-3 ovarian; 7.78 µM with HOP-92 NSCLC; 15.9 µM with MDA-MB-231 breast; 26.6 µM with SK-MEL-2 melanoma; 4.78 µM in the assay on T-47D breast. Also, the TGI in the assay with SK-MEL-28 melanoma amounted to 14.4 µM; in the assay with OVCAR-8 ovarian, 11 µM; in the assay with TK-10 renal it was 17.8 µM; with HCC-2998 colon, 50.6 µM; in the assay with RXF 393 renal, 5.34 µM; in the assay on LOX IMVI melanoma, 20.1 µM. Further, the TGI in the assay with SF-295 CNS is 22.2 µM.

Regarding `O=C(/C=C/c1ccc(C(F)(F)F)cc1)c1c([O-])on[n+]1-c1ccccc1`, the TGI in the assay with OVCAR-3 ovarian was 3.37 µM; in the assay with HT29 colon, 2.25 µM; with HL-60(TB) leukemia, 0.459 µM; with NCI/ADR-RES ovarian it was 4.18 µM; in the assay with HCT-15 colon it was 3.12 µM; in the assay with SK-OV-3 ovarian it was greater than 63.4 µM. For the same compound, the TGI was 3.06 µM with HOP-92 NSCLC; 20 µM with MDA-MB-231 breast; 9.64 µM in the assay on SK-MEL-2 melanoma; 3.82 µM in the assay on T-47D breast; 2.89 µM with SK-MEL-28 melanoma; 5.38 µM in the assay with OVCAR-8 ovarian. Moreover, the TGI in the assay on TK-10 renal turned out to be 3.07 µM; with HCC-2998 colon, 4.18 µM; with RXF 393 renal, 2.68 µM; in the assay with LOX IMVI melanoma, 1.56 µM; in the assay with SF-295 CNS, 20.2 µM.
